Active and inactive are the calls of the source. How the calls were made is not given here.
System: GENE-TOX genotoxicity assays, various organisms and cells
Assay: GENE-TOX mutagenicity studies
Conditions: for call: Assay Type: In vivo carcinogenicity studies
[1] = Species/Cell Type: Drosophila melanogaster, Assay Type: Aneuploidy, sex chromosome gain, chromosome aberrations, Assay Code: DAGT, Evaluation Type: Evaluation A (Pre-1980)
[2] = Species/Cell Type: Drosophila melanogaster, Assay Type: Aneuploidy, whole sex chromosome loss, chromosome aberrations, Assay Code: DAC-M, Evaluation Type: Evaluation A (Pre-1980)
[3] = Species/Cell Type: Drosophila melanogaster, Assay Type: Sex-linked recessive lethal gene mutation, Assay Code: SRLT, Evaluation Type: Evaluation A (Pre-1980)
[4] = Species/Cell Type: Fischer rat embryo (RLV/1706) cells, Assay Type: Cell transformation, viral enhanced, Assay Code: CTR+, Evaluation Type: Evaluation A (Pre-1980)
[5] = Species/Cell Type: Human diploid fibroblasts, Assay Type: Unscheduled DNA synthesis (UDS) in vitro, DNA effects, Assay Code: UDH-, Evaluation Type: Evaluation A (Pre-1980)
[6] = Species/Cell Type: Neurospora crassa, Assay Type: Forward gene mutation, Assay Code: NEF+, Evaluation Type: Evaluation A (Pre-1980)
[7] = Species/Cell Type: Nonhuman, Assay Type: Sister-chromatid exchange (SCE) in vitro, Assay Code: SC2+D, Dose Response: With dose response, Evaluation Type: Evaluation B (Post-1980)
[8] = Species/Cell Type: Saccharomyces cerevisiae, Assay Type: Forward gene mutation, Assay Code: YEF+, Evaluation Type: Evaluation A (Pre-1980)
[9] = Species/Cell Type: Salmonella typhimurium (one or more of the five standard strains: TA98, TA100, TA1535, TA1537, and TA1538), Assay Type: Histidine reverse gene mutation, Ames assay, Assay Code: SAL-, Evaluation Type: Evaluation A (Pre-1980)
[10] = Species/Cell Type: Saccharomyces cerevisiae, Assay Type: Mitotic recombination or gene conversion, Assay Code: YEH-, Evaluation Type: Evaluation A (Pre-1980)
[11] = Species/Cell Type: Salmonella typhimurium (one or more of the five standard strains: TA98, TA100, TA1535, TA1537, and TA1538), Assay Type: Histidine reverse gene mutation, Ames assay, Assay Code: SALT, Evaluation Type: Evaluation A (Pre-1980)
[12] = Species/Cell Type: Syrian hamster embryo (SA7/SHE) cells, Assay Type: Cell transformation, viral enhanced, Assay Code: CT7+, Evaluation Type: Evaluation A (Pre-1980)
[13] = Species/Cell Type: Salmonella typhimurium, Assay Type: Forward and reverse gene mutation, host-mediated assay, Assay Code: HMA-, Evaluation Type: Evaluation A (Pre-1980)
[14] = Species/Cell Type: Salmonella typhimurium (one or more of the five standard strains: TA98, TA100, TA1535, TA1537, and TA1538), Assay Type: Histidine reverse gene mutation, Ames assay, Assay Code: SAL+, Evaluation Type: Evaluation A (Pre-1980)
[15] = Species/Cell Type: Drosophila melanogaster, Assay Type: Sex-linked recessive lethal gene mutation, Assay Code: SRL+, Evaluation Type: Evaluation A (Pre-1980)
[16] = Species/Cell Type: Nonhuman, Assay Code: CCG+, Evaluation Type: Evaluation A (Pre-1980)
[17] = Species/Cell Type: Saccharomyces cerevisiae, Assay Type: Mitotic recombination or gene conversion, Assay Code: YEH+*, Activation: With metabolic activation, Evaluation Type: Evaluation A (Pre-1980)

NO
mutagenic call (Species/Cell Type: Allium cepa, Assay Type: Chromosome aberrations, Assay Code: ALC+D, Dose Response: With dose response, Evaluation Type: Evaluation A (Pre-1980)): active; positive
mutagenic call (Species/Cell Type: Arabidopsis species, Assay Type: Gene mutation, Assay Code: ARM-, Evaluation Type: Evaluation A (Pre-1980)): inactive; negative
mutagenic call [1]: no conclusion
mutagenic call [2]: inactive; negative
mutagenic call [3]: no conclusion
mutagenic call (Species/Cell Type: Escherichia coli polA (W3119 vs P3478), Assay Type: Rec-assay, DNA effects (bacterial DNA repair), Assay Code: RE1+, Evaluation Type: Evaluation A (Pre-1980)): active; positive
mutagenic call [4]: active; positive
mutagenic call (Species/Cell Type: Glycine max (soybean), Assay Type: Gene mutation, Assay Code: GLM-, Evaluation Type: Evaluation A (Pre-1980)): inactive; negative
mutagenic call [5]: inactive; negative
mutagenic call (Species/Cell Type: Human lymphocytes or leukocytes, Assay Type: Chromosome aberrations in vitro, Assay Code: CY7-, Evaluation Type: Evaluation A (Pre-1980)): inactive; negative
mutagenic call (Species/Cell Type: Mouse (BALB/c-3T3) cells, Assay Type: Cell transformation, Assay Code: CTB-, Evaluation Type: Evaluation A (Pre-1980)): inactive; negative
mutagenic call [6]: active; positive
call (Species/Cell Type: Nonhuman, Assay Code: CCGT, Evaluation Type: Evaluation A (Pre-1980)): no conclusion
mutagenic call [7]: active; positive
mutagenic call [8]: active; positive
mutagenic call (Species/Cell Type: Saccharomyces cerevisiae, Assay Type: Mitotic recombination or gene conversion, Assay Code: YEH+, Evaluation Type: Evaluation A (Pre-1980)): active; positive
mutagenic call [9]: inactive; negative
mutagenic call (Species/Cell Type: Schizosaccharomyces pombe, Assay Type: Forward gene mutation, Assay Code: YEY+, Evaluation Type: Evaluation A (Pre-1980)): active; positive
mutagenic call (Species/Cell Type: Syrian hamster embryo (SHE) cells, Assay Type: Cell transformation, clonal assay, Assay Code: CTC-, Evaluation Type: Evaluation A (Pre-1980)): inactive; negative
mutagenic call (Species/Cell Type: Vicia faba, Assay Type: Chromosome aberrations, Assay Code: VIC+, Evaluation Type: Evaluation A (Pre-1980)): active; positive

CCNc1nc(Cl)nc(NCC)n1
mutagenic call (Species/Cell Type: Drosophila melanogaster, Assay Type: Aneuploidy, partial sex chromosome loss, chromosome aberrations, Assay Code: DAPT, Evaluation Type: Evaluation A (Pre-1980)): no conclusion
mutagenic call [1]: no conclusion
mutagenic call [2]: inactive; negative
mutagenic call [5]: inactive; negative
mutagenic call (Species/Cell Type: Saccharomyces cerevisiae, Assay Type: Mitotic recombination or gene conversion, Assay Code: YEC-, Evaluation Type: Evaluation A (Pre-1980)): inactive; negative
mutagenic call [10]: inactive; negative
mutagenic call [11]: no conclusion
mutagenic call [12]: active; positive

Cc1ccc2c(ccc3c4ccccc4ccc23)c1
mutagenic call (Species/Cell Type: Salmonella typhimurium (one or more of the five standard strains: TA98, TA100, TA1535, TA1537, and TA1538), Assay Type: Histidine reverse gene mutation, Ames assay, Assay Code: SAL+*, Activation: With metabolic activation, Evaluation Type: Evaluation A (Pre-1980)): active; positive

COc1ccc(/C=N/NC(=O)c2ccncc2)c(C(=O)O)c1OC
mutagenic call [13]: inactive; negative

O=[N+]([O-])c1ccc(N2CCN(CCO)CC2)c2c1no[n+]2[O-]
mutagenic call [14]: active; positive

CC(=O)N(C)N=O
mutagenic call [15]: active; positive
mutagenic call (Species/Cell Type: Drosophila melanogaster, Sex: Male, Assay Type: Heritable translocation test, chromosome aberrations, Assay Code: DHTT, Evaluation Type: Evaluation A (Pre-1980)): no conclusion
mutagenic call [8]: active; positive
mutagenic call (Species/Cell Type: Saccharomyces cerevisiae, Assay Type: Reverse gene mutation, Assay Code: YER+, Evaluation Type: Evaluation A (Pre-1980)): active; positive

Cc1cccc(N=Nc2ccc(N(C)C)cc2)c1
mutagenic call [3]: no conclusion
mutagenic call (Species/Cell Type: Escherichia coli polA (W3110 vs P3478), Assay Type: Rec-assay, DNA effects (bacterial DNA repair), Assay Code: RE2-, Evaluation Type: Evaluation A (Pre-1980)): inactive; negative
mutagenic call (Species/Cell Type: Escherichia coli polA (W3119 vs P3478), Assay Type: Rec-assay, DNA effects (bacterial DNA repair), Assay Code: RE1T, Evaluation Type: Evaluation A (Pre-1980)): no conclusion
mutagenic call [4]: active; positive
mutagenic call [5]: inactive; negative
mutagenic call (Species/Cell Type: Mouse embryo (AKR/ME) cells, Assay Type: Cell transformation, Assay Code: CTK-, Evaluation Type: Evaluation A (Pre-1980)): inactive; negative
mutagenic call [6]: active; positive
call [16]: active; positive
mutagenic call [7]: active; positive
mutagenic call (Species/Cell Type: Nonhuman, Assay Type: Sister-chromatid exchange (SCE) in vivo, Assay Code: SC3+, Evaluation Type: Evaluation B (Post-1980)): active; positive
mutagenic call (Species/Cell Type: Rat primary hepatocytes, Assay Type: Unscheduled DNA synthesis (UDS) in vitro, DNA effects, Assay Code: UDP+D, Dose Response: With dose response, Evaluation Type: Evaluation A (Pre-1980)): active; positive
mutagenic call [17]: active; positive
mutagenic call [13]: inactive; negative
mutagenic call (Species/Cell Type: Syrian hamster embryo (SHE) cells, Assay Type: Cell transformation, clonal assay, Assay Code: CTCT, Evaluation Type: Evaluation A (Pre-1980)): no conclusion

Cc1ccc2cc3c(c4c2c1CC4)[C@@H](O)[C@@H](O)c1ccccc1-3
mutagenic call (Species/Cell Type: Chinese hamster lung (V79) cells, Assay Type: Forward gene mutation at the HPRT or ouabain locus, Assay Code: V79+, Evaluation Type: Evaluation A (Pre-1980)): active; positive
mutagenic call (Species/Cell Type: Mouse prostate cells, Assay Type: Cell transformation, Assay Code: CTMT, Evaluation Type: Evaluation A (Pre-1980)): no conclusion

N
mutagenic call [3]: no conclusion

CC1CO1 (centres undefined)
mutagenic call (Species/Cell Type: Chinese hamster ovary (CHO) cells, Assay Type: Forward gene mutation at the HPRT locus, Assay Code: CHO+, Evaluation Type: Evaluation B (Post-1980)): active; positive
mutagenic call [15]: active; positive
mutagenic call (Species/Cell Type: Neurospora crassa, Assay Type: Reverse gene mutation, Assay Code: NER+, Evaluation Type: Evaluation A (Pre-1980)): active; positive
call [16]: active; positive
mutagenic call (Species/Cell Type: Nonhuman, Assay Type: Sister-chromatid exchange (SCE) in vivo, Assay Code: SC3T, Evaluation Type: Evaluation B (Post-1980)): no conclusion
mutagenic call (Species/Cell Type: Rodents, Sex: Male, Assay Type: Dominant lethal test, Assay Code: DLT-, Evaluation Type: Evaluation A (Pre-1980)): inactive; negative
mutagenic call (Species/Cell Type: Schizosaccharomyces pombe, Assay Type: Reverse gene mutation, Assay Code: YEZ+, Evaluation Type: Evaluation A (Pre-1980)): active; positive
mutagenic call [12]: active; positive

NC[C@H]1O[C@H](O[C@H]2[C@H](O[C@@H]3O[C@H](CO)[C@@H](O)[C@H]3O)[C@@H](O)[C@H](N)C[C@@H]2N)[C@H](N)[C@@H](O)[C@@H]1O
mutagenic call [10]: inactive; negative

Cc1cc(N(C)CCCl)ccc1N=Nc1ccccc1C(=O)O
mutagenic call [3]: no conclusion

CCCCN(CCCC(=O)NCC(=O)O)N=O
mutagenic call [11]: no conclusion

COc1cc2c(c3oc4cccc(O)c4c(=O)c13)[C@@H]1C=CO[C@@H]1O2
mutagenic call (Species/Cell Type: Bacillus subtilis (H17 vs M45), Assay Type: Rec-assay, spot test, DNA effects (bacterial DNA repair), Assay Code: REWT, Evaluation Type: Evaluation A (Pre-1980)): no conclusion
mutagenic call (Species/Cell Type: Human diploid fibroblasts, Assay Type: Unscheduled DNA synthesis (UDS) in vitro, DNA effects, Assay Code: UDH+*, Activation: With metabolic activation, Evaluation Type: Evaluation A (Pre-1980)): active; positive
mutagenic call [6]: active; positive
mutagenic call (Species/Cell Type: Nonhuman, Assay Type: Chromosome aberrations in vitro, Assay Code: CY&+, Evaluation Type: Evaluation A (Pre-1980)): active; positive
call [16]: active; positive
mutagenic call (Species/Cell Type: Nonhuman, Assay Type: Sister-chromatid exchange (SCE) in vivo, Assay Code: SC3+D, Dose Response: With dose response, Evaluation Type: Evaluation B (Post-1980)): active; positive
mutagenic call [17]: active; positive
mutagenic call [14]: active; positive

C[C@H]1CCC[C@@]2(C)CCCC[C@]12O
mutagenic call [9]: inactive; negative

CC1=C(/C=C/C(C)=C/C=C/C(C)=C/C(=O)O)C(C)(C)CCC1
mutagenic call (Species/Cell Type: Human, Assay Type: Sister-chromatid exchange (SCE) in vitro, Assay Code: SC1+D, Dose Response: With dose response, Evaluation Type: Evaluation A (Pre-1980)): active; positive
mutagenic call (Species/Cell Type: Nonhuman, Assay Type: Sister-chromatid exchange (SCE) in vitro, Assay Code: SC2T, Evaluation Type: Evaluation B (Post-1980)): no conclusion
